IC50 data for ten molecules are collected here from patent US6271342A, “Sugar-modified cytostatics” (Bayer Aktiengesellschaft, priority 1995, dated 2001).

Counter-ions that a name gives are not always drawn.

What is called IC50 is the midpoint of a concentration-inhibition curve. High values mean weaker potency, low ones greater potency.

This assay relates to SW 480. As to the kind of experiment: Growth inhibition test (MTT) for cytotoxic properties. The format is cell-based, human. The settings on record: Table 1a, glycoconjugates of batracyline. How it is done:
Growth Inhibition Test for Determination of the Cytotoxic Properties of Glycoconjugates of Batracyline and of Quinolone-a
The human colon cell lines SW 480 and HT 29 (ATCC no. CCL 228 and HBT-38) and the mouse melanoma cell line B 16 F 10 were cultured in Roux dishes in RPMI 1640 medium with addition of 10% FCS. The cultures were then trypsinized and taken up in RPMI plus 10% FCS to a cell count of 50,000 cells/ml. 100 μl of cell suspension/well were introduced into a 96 microwell plate and incubated for 1 day at 37° C. in a CO2 incubating cabinet. A further 100 μl of RPMI medium and 1 μl of dimethyl sulphoxide with the test substances were then added. The growth was checked after day 3 and day 6. 40 μl of MTT solution (3-(4,5-dimethylthiazol-2-yl)-2,5-diphenyltetrazoline bromide) with an initial concentration of 5 mg/ml of H2 O were added to each microwave. The plate was incubated for 5 hours in a CO2 incubating cabinet at 37° C. The medium was then sucked off and 100 μl of i-propanol/well were added. After shaking for 30 minutes with 100 μl of H2 O, the extinction was measured at 540 nm with a Titertek Multiskan MCC/340 (Flow).
The cytotoxic action of the glycoconjugates of batracyline described is shown in Table 1a as the IC50 value in each case for the SW 480 and HT 29 cell lines.
`C[C@@H]1O[C@H](Oc2ccc(NC(=S)NCCCC[C@H](N)C(=O)N[C@H](C)C(=O)Nc3ccc4c(c3)CN3C(=O)c5ccccc5C3=N4)cc2)[C@@H](O)C[C@@H]1O` [Example 3.7, N-{N^ε -[O-(3-Deoxy-β-L-fucosyl)-4-hydroxy-phenylamino-thiocarbonyl]-lysyl-D -alanyl}-batracyline, trifluoroacetate]: the IC50 was 55 µM.
On to `CO[C@H]1[C@@H](O)[C@H](O)[C@@H](Oc2ccc(NC(=S)NCCCC[C@H](N)C(=O)N[C@H](C)C(=O)Nc3ccc4c(c3)Cn3c-4nc4ccccc4c3=O)cc2)O[C@H]1C` [Example 3.11, N-{N^ε -[O-(4-O-Methyl-β-L-fucosyl)-4-hydroxy-phenylamino-thiocarbonyl]-lysyl-D-alanyl}-batracyline, acetate], for which 85 µM corresponded to half-maximal inhibition (IC50).
For `CNC(=O)COC1C(O)C(CO)OC(Oc2ccc(NC(=S)NCCCCC(N)C(=O)NC(C)C(=O)Nc3ccc4nc5n(c(=O)c4c3)Cc3ccccc3-5)cc2)C1O` [Example 3.20, N-{N^ε -[O-(3-O-(N-Methyl-carbamoylmethyl)-β-D-galactopyranosyl)-4-hydroxy-phenylamino-thiocarbonyl]-lysyl-D-alanyl}-batracyline, trifluoroacetate], inhibition was half-maximal at 100 µM (IC50). The IC50 values of the last two molecules are within 1.5-fold of each other.
For `CC(=O)OCC1OC(Oc2ccc(NC(=S)NCCCCC(N)C(=O)NC(C)C(=O)Nc3ccc4nc5n(c(=O)c4c3)Cc3ccccc3-5)cc2)C(O)C(O)C1O` [Example 3.24, N-{N^ε -[O-(6-O-Acetyl-β-D-galactopyranosyl)-4-hydroxy-phenylamino-thiocarbonyl]-lysyl-D-alanyl}-batracyline, trifluoroacetate] the value was 95 µM; for `COC1C(Oc2ccc(NC(=S)NCCCCC(N)C(=O)NC(C)C(=O)Nc3ccc4nc5n(c(=O)c4c3)Cc3ccccc3-5)cc2)OC(CO)C(O)C1OC` [Example 3.27, N-{N^ε -[O-(2,3-Di-O-methyl-α-D-mannopyranosyl)-4-hydroxy-phenylamino-thiocarbonyl]-lysyl-D-alanyl}-batracyline, trifluoroacetate], 110 µM; for `CC(NC(=O)C(CCCCNC(=S)Nc1ccc(OC2OC(CO)C(O)C(OCC(N)=O)C2O)cc1)NC(=S)Nc1ccc(OC2OC(CO)C(O)C(OCC(N)=O)C2O)cc1)C(=O)Nc1ccc2nc3n(c(=O)c2c1)Cc1ccccc1-3` [Example 6.82, N-{N^α,N^ε -Bis-[O-(3-O-carbamoylmethyl-β-D-galactopyranosyl)-4-hydroxy-phenylamino-thiocarbonyl]-lysyl-D-alanyl}-batracyline], 125 µM.
For `CO[C@H]1[C@H](O)[C@@H](Oc2ccc(Nc3nc(NCCO)nc(NCCCC[C@H](N)C(=O)N[C@H](C)C(=O)Nc4ccc5c(=O)n6c(nc5c4)-c4ccccc4C6)n3)cc2)O[C@@H](C)[C@H]1O` [Example 8.10, N-{N^ε -[4-Hydroxyethylamino-2-[O-(3-O-methyl-β-L-fucosyl)-4-hydroxy-phenylamino]-triazin-6-yl]-lysyl-D-alanyl}-batracyline, trifluoroacetate] the value was 70 µM; for `CO[C@H]1[C@@H](O)[C@H](O)[C@@H](Oc2ccc(Nc3nc(NCCO)nc(NCCCC[C@H](N)C(=O)N[C@@H](C)C(=O)Nc4ccc5c(c4)CN4C(=O)c6ccccc6C4=N5)n3)cc2)O[C@H]1C` [Example 8.12, N-{N^ε -[4-Hydroxyethylamino-2-[O-(4-O-methyl-β-L-fucosyl)-4-hydroxy-phenylamino]-triazin-6-yl]-lysyl-alanyl}-batracyline, trifluoroacetate], 30 µM; for “N-{N-[O-(β-L-Fucosyl)-4-hydroxy-phenylamino-thiocarbonyl]-glutamyl-D-a lanyl}-batracyline [Example 7.5]”, 80 µM.
In turn, “N-{N^α -[4-Hydroxyphenylamino-thiocarbonyl]-N^ε -[O-(4-O-methyl-β-L-fucosyl)-4-hydroxyphenylamino-thiocarbonyl]-lysyl -D-alanyl}-batracyline [Example 5.6]” yielded an IC50 greater than 250 µM.
